Results: ChEMBL document CHEMBL5465560, “Selectivity Literature for EUbOPEN Chemogenomic Library” (2024)
Values belong to the compound of their own block, whether it stands above or below them.

Legend:
[1] = target: Serine/threonine-protein kinase Nek7 (Homo sapiens) (UniProt Q8TDX7); details: at 10 µM
[2] = target: Myosin light chain kinase 2, skeletal/cardiac muscle (Homo sapiens) (UniProt Q9H1R3); assay: Selectivity interaction (Ambit KINOMEscan and KiNATiv profiling in Jurkat cells) EUB0000090b MYLK2; assay type: cell-based; details: at 1 µM
[3] = target: T1, Ephrin type-B receptor 1 (Homo sapiens) (UniProt P54762); assay: Selectivity interaction (KinomeScan (DiscoverX)) EUB0001079a EPHB1; details: at 1 µM
T1 sequence (whole entry): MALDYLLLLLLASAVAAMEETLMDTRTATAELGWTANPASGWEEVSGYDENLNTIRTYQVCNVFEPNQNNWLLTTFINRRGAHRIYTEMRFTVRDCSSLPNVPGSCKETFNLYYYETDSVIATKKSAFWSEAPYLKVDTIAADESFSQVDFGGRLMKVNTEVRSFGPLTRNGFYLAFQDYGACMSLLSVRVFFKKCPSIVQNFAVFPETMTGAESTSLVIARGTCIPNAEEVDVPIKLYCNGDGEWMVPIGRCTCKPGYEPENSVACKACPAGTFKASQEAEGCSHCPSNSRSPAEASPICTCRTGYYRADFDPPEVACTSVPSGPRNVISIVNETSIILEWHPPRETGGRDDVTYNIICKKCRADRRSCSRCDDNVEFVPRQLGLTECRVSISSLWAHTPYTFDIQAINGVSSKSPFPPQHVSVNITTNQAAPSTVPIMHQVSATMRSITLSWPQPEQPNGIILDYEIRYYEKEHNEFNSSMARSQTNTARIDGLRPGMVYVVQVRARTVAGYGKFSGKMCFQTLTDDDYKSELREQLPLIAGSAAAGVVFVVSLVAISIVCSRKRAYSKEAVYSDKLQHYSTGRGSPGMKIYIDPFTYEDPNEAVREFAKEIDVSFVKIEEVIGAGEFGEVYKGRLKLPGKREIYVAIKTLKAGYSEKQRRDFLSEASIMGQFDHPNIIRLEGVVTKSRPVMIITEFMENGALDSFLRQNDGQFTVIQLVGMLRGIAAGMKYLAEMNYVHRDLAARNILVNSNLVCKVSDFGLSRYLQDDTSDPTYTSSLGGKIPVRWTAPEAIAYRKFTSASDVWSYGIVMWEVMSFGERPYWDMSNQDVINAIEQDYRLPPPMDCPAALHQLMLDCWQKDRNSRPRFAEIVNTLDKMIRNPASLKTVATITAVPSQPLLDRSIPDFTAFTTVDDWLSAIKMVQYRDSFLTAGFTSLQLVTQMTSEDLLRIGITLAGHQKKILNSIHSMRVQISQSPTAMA

[4] = target: Cyclin-dependent kinase 1 (Homo sapiens) (UniProt P06493); assay: Selectivity interaction (ActivX KiNativ screen (ex vivo kinase selectivity in human PBMCs)) EUB0001619a CDK1; assay type: cell-based; details: PBMC, at 1 µM
[5] = target: T2, Testis-specific serine/threonine-protein kinase 1 (Homo sapiens) (UniProt Q9BXA7); assay: Selectivity interaction (KinomeScan (DiscoverX)) EUB0000045b TSSK1A
T2 sequence (whole entry): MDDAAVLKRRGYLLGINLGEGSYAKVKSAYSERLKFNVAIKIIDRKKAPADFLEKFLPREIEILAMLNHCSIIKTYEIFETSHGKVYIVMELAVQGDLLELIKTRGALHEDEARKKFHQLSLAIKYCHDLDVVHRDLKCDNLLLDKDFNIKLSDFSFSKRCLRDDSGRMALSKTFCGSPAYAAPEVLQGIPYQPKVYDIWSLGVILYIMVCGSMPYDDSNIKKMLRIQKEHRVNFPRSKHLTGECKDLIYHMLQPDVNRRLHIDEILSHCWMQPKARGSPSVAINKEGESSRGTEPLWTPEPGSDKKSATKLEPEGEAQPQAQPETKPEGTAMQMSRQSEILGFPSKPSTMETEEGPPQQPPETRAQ

[6] = target: Serine/threonine-protein kinase 16 (Homo sapiens, UniProt O75716); assay: Selectivity interaction (ActivX KiNativ screen (kinase selectivity in THP-1 cell lysates)) EUB0000639a STK16; assay type: subcellular; details: lysate, at 5 µM
[7] = target: Mitogen-activated protein kinase kinase kinase 11 (Homo sapiens) (UniProt Q16584); assay: Selectivity interaction (Kinase panel (Invitrogen)) EUB0000639a MAP3K11; details: at 200 nM
[8] = target: Serine/threonine-protein kinase 38-like (Homo sapiens) (UniProt Q9Y2H1); assay: Selectivity interaction (ActivX KiNativ screen (kinase selectivity in THP-1 cell lysates)) EUB0000639a STK38L; assay type: subcellular; details: lysate, at 0.04 µM
[9] = target: T3, Scaffold protein ILK (Homo sapiens) (UniProt Q13418); assay: Selectivity interaction (ActivX KiNativ screen (kinase selectivity in THP-1 cell lysates)) EUB0000639a ILK; assay type: subcellular; details: lysate, at 5 µM
T3 sequence (whole entry): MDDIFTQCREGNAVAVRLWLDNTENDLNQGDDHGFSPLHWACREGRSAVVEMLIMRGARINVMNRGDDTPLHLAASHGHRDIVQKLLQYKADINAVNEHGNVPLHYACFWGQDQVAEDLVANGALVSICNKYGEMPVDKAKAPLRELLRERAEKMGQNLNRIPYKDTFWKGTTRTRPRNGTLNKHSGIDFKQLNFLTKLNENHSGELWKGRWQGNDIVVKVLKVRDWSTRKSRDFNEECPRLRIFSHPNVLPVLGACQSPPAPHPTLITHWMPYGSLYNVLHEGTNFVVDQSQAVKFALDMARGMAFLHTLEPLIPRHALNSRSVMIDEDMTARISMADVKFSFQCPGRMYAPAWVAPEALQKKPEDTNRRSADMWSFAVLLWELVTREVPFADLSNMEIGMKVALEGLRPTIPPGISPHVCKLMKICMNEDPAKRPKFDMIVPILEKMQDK

[10] = target: Bromodomain-containing protein 2 (Homo sapiens) (UniProt P25440); assay: Selectivity interaction (Bromodomain panel (DSF asssay)) EUB0000270b BRD2
[11] = test system: Leucine-rich repeat serine/threonine-protein kinase 2 (Homo sapiens), Q5S007 [I2020T]; assay: (§1) Selectivity interaction (ProQinase) EUB0000171b LRRK2
[12] = test system: Leucine-rich repeat serine/threonine-protein kinase 2 (Homo sapiens), Q5S007 [G2019S]; assay: as §1
[13] = target: Leucine-rich repeat serine/threonine-protein kinase 2 (Homo sapiens, UniProt Q5S007); assay: as §1
[14] = test system: Leucine-rich repeat serine/threonine-protein kinase 2 (Homo sapiens), Q5S007 [R1441C]; assay: as §1

Leucine-rich repeat serine/threonine-protein kinase 2, sequence (Q5S007 whole entry): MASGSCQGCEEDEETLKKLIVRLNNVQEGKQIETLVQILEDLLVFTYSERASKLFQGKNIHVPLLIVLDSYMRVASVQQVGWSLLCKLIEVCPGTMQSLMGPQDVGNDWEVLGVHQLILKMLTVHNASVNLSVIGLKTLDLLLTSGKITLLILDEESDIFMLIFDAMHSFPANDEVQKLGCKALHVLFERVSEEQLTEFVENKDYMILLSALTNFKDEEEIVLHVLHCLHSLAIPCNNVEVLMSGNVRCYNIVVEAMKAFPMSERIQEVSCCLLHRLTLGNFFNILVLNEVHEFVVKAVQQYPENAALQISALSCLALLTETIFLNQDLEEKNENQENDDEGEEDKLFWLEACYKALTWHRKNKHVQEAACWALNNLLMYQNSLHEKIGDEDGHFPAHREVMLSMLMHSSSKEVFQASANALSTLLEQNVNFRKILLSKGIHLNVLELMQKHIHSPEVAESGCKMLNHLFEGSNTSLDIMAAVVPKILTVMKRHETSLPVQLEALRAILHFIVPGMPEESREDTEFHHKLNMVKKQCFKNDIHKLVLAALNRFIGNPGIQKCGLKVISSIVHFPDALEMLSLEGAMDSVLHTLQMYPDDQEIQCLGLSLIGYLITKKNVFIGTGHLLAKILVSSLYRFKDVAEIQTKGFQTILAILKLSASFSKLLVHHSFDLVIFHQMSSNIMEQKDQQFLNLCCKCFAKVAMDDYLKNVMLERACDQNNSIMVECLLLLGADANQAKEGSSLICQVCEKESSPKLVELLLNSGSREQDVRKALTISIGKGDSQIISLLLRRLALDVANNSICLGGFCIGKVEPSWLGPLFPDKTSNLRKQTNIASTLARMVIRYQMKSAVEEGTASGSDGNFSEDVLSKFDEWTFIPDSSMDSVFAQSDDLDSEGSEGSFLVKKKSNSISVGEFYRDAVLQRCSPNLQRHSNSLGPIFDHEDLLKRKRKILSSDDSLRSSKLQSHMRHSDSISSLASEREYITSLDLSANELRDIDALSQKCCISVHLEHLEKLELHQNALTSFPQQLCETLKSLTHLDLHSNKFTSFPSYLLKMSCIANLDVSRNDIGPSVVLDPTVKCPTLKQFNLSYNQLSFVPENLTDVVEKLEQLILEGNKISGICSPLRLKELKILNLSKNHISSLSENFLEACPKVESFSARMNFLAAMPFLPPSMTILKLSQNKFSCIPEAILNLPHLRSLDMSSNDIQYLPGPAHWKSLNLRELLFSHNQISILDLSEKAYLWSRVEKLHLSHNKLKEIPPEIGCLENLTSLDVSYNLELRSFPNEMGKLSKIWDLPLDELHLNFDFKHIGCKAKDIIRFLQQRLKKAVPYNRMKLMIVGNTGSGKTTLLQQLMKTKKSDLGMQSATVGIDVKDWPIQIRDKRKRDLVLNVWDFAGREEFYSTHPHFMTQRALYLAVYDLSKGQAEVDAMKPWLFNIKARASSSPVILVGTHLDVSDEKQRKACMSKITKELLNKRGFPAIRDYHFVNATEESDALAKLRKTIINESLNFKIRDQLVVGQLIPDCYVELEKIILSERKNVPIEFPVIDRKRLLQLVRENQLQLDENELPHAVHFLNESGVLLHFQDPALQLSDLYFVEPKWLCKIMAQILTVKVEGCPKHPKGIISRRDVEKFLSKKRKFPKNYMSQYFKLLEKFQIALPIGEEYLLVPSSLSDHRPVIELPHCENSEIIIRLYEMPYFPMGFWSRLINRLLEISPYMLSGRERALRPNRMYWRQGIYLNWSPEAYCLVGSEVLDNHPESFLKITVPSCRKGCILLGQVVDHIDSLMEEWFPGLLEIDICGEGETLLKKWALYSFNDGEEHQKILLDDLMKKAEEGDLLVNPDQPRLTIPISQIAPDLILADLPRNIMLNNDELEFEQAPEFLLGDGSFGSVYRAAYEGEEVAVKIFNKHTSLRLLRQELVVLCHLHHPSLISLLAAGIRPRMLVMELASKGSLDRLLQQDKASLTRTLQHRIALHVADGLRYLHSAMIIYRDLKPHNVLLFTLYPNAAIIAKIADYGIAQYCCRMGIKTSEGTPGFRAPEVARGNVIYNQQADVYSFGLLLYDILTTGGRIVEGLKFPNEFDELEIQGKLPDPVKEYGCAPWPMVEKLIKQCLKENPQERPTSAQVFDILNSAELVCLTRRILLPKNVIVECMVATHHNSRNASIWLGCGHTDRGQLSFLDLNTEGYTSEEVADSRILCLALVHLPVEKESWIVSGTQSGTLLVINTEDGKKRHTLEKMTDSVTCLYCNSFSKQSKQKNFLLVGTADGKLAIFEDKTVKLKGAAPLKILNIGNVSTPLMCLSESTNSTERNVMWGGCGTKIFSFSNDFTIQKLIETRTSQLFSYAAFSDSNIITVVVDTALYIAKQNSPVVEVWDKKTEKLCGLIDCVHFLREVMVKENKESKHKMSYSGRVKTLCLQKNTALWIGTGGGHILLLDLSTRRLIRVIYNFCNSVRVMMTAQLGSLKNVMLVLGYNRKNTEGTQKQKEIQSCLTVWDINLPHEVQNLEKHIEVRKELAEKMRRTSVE
Leucine-rich repeat serine/threonine-protein kinase 2 (Homo sapiens), Q5S007 [G2019S], sequence (Q5S007 whole entry G2019S): as the sequence (Q5S007 whole entry) above, with G2019S counted along it

% of control [1]: 100%
SMILES: CCN(CC)CCCCNc1ncc2cc(-c3cc(OC)cc(OC)c3)c(NC(=O)NC(C)(C)C)nc2n1

% of inhibition [6]: 81.9% | % of inhibition [7]: 0.995% | % of inhibition [8]: 7.6% | % of inhibition [9]: -24.1%
SMILES: CC[C@@H]1[C@H](F)C(=O)N[C@@H]1COc1nccc2cc(C(N)=O)c(OC)cc12 [ZIMLOVISERTIB]

dTM [10]: -1.94 K
SMILES: Cc1cc(CN)cc(C)c1-c1ncn(C)c1-c1cncn1C

Second part, the compound before the results:

SMILES: CN(C)C/C=C/C(=O)Nc1ccc(C(=O)N2CCCC(Nc3ncc(Cl)c(-c4c[nH]c5ccccc45)n3)C2)cc1 (centres undefined)
% of control [2]: 91%

SMILES: Nc1cnc(N2CCc3cc(S(=O)(=O)Nc4c(F)cc(Cl)cc4F)cc(N4CCCC4=O)c32)nc1 [TP-020n]
% of control [3]: 92%

SMILES: N#Cc1cccc(-c2c[nH]c3ncnc(N4CCOCC4)c23)c1
% of inhibition [4]: 13%

SMILES: C=CC(=O)Nc1cc(-n2c(=O)ccc3cnc4ccc(-c5ccc(NS(C)(=O)=O)cc5)cc4c32)ccc1C
% of control ([5]; at 1 µM): 100% | % of control ([5]; at 10 µM): 74%

SMILES: C=CC(=O)Nc1cccc(C(=O)Nc2ccc(Nc3cc(-c4[nH]c(SC)nc4C)ccn3)cc2)c1
% of control ([11]; at 1 µM): 71% | % of control ([11]; at 5 µM): 49% | % of control ([12]; at 1 µM): 72% | % of control ([12]; at 5 µM): 52% | % of control ([13]; at 1 µM): 77% | % of control ([13]; at 5 µM): 47% | % of control ([14]; at 1 µM): 80% | % of control ([14]; at 5 µM): 51%
